Source: paper PMC5584254, “Identification of novel small molecule Beclin 1 mimetics activating autophagy” (Oncotarget, 2017)
Where a name gives a salt, the structure may show the parent alone. Read-outs that look alike come from different tables or passages of the source.

Columns and labels:
[1] = biological target: T1, Bcl-xL-Beclin 1 complex (Homo sapiens, UniProt Q07817); assay: FP-based high-throughput screening, primary screen; assay type: binding; settings: first screen; 40 μM compound, 2.5 μM Bcl-xL, 400 nM 20-mer
T1 construct: made in house
Excerpt: Next, we optimized the FP competitive binding assay in a 384-well microplate format and carried out a small-scale HTS using a small library, which contains 6580 compounds from Prestwick, Microsource and our in-house CMLD library. Then, the FP assay was optimized and applied in screening the larger Chembridge library consisting of 43736 compounds. HTS cascades are shown in Supplementary Figure 1A–1B. […] All chemical structures can be found on the PubChem website (http://pubchem.ncbi.nlm.nih.gov/).
(§1) Then the plates were read by Envision (Perkin Elmer, Waltham, MA). […] The hits were selected from library stocks and reconfirmed in a concentration response FP assay (6 doses ranging from 5 μM to 160 μM or 8 doses ranging from 0.5 μM to 60 μM).

[2] = biological target: T1, Bcl-xL-Beclin 1 complex; assay: Concentration response FP reconfirmation of HTS hits; assay type: binding; settings: for inhibition at 5 µM: read-out: Dose-response (% Inhibition) 5 μM; for inhibition at 10 µM: read-out: Dose-response (% Inhibition) 10 μM; for inhibition at 20 µM: read-out: Dose-response (% Inhibition) 20 μM; for inhibition at 40 µM: read-out: Dose-response (% Inhibition) 40 μM; for inhibition at 80 µM: read-out: Dose-response (% Inhibition) 80 μM; for inhibition at 160 µM: read-out: Dose-response (% Inhibition) 160 μM
Protocol: as §1

T1 sequence (Q07817 whole entry, one chain of several): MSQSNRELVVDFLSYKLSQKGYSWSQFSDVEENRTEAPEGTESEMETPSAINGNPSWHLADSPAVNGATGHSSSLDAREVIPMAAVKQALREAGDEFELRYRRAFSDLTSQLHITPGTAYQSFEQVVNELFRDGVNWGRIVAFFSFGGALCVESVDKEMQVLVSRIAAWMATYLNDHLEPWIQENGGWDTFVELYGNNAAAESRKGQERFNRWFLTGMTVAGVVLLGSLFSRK

Row | Compound | Primary Screen mP [1] [mP] | inhibition at 40 µM [1] [%] | inhibition at 5 µM ([2]; 5 μM, hits of first screen) [%] | inhibition at 10 µM ([2]; 10 μM, hits of first screen) [%] | inhibition at 20 µM ([2]; 20 μM, hits of first screen) [%] | inhibition at 40 µM ([2]; 40 μM, hits of first screen) [%] | inhibition at 80 µM ([2]; 80 μM, hits of first screen) [%] | inhibition at 160 µM ([2]; 160 μM, hits of first screen) [%] | also measured
1 | CCCCCCCCCCCCCCCCC(C(=O)O)C(O)(CC(=O)O)C(=O)O (stereo not shown) [Compound A19, AGARIC ACID] | 118.2 | – | – | – | – | – | – | – | Primary Screen % Inhibition [1]: 15.85%; Dose-response (% Inhibition) 5 μM ([2]; 5 μM, hits of first screen): 3.8%; Dose-response (% Inhibition) 10 μM ([2]; 10 μM, hits of first screen): 6.3%; Dose-response (% Inhibition) 20 μM ([2]; 20 μM, hits of first screen): 9.1%; Dose-response (% Inhibition) 40 μM ([2]; 40 μM, hits of first screen): 12.7%; Dose-response (% Inhibition) 80 μM ([2]; 80 μM, hits of first screen): 20.3%; Dose-response (% Inhibition) 160 μM ([2]; 160 μM, hits of first screen): 20.9%
2 | CCc1oc2ccccc2c1C(=O)c1cc(Br)c(O)c(Br)c1 [Compound A20, BENZBROMARONE] | 125.0 | 9.05 | 0.2 | 0.6 | 1 | 1.1 | 6.1 | 11.3 | –
3 | OCCN(CCO)c1nc(N2CCCCC2)c2nc(N(CCO)CCO)nc(N3CCCCC3)c2n1 [Compound A22, DIPYRIDAMOLE] | 72.7 | 47.8 | 10.1 | 21 | 35.1 | 46.7 | 62.9 | 72.4 | –
4 | CC[C@@]1(O)C(=O)OCc2c1cc1n(c2=O)Cc2cc3c(CN(C)C)c(O)ccc3nc2-1 [Compound A23, TOPOTECAN HYDROCHLORIDE] | 43.8 | 68.7 | 39.8 | 54.8 | 64.7 | 70.9 | 102 | 103 | –
5 | COc1cccc2c1C(=O)c1c(O)c3c(c(O)c1C2=O)C[C@@](O)(C(=O)CO)C[C@@H]3O[C@H]1C[C@H](N)[C@@H](O)[C@H](C)O1 [Compound A24, EPIRUBICIN HYDROCHLORIDE] | 136.0 | 22.8 | 6.8 | 11.3 | 16.2 | 23.1 | 34.4 | 40.9 | –
6 | COc1cccc2c1C(=O)c1c(O)c3c(c(O)c1C2=O)C[C@@](O)(C(=O)CO)C[C@@H]3O[C@H]1C[C@H](N)[C@H](O)[C@H](C)O1 [Compound A25, DOXORUBICIN HYDROCHLORIDE] | 75.9 | 44 | 18.9 | 29.1 | 36.5 | 41.7 | 48.6 | 53.2 | –
7 | C[n+]1c2cc(N)ccc2cc2ccc(N)cc21.[Cl-] [Compound A26, ACRIFLAVINIUM HYDROCHLORIDE] | -3.2 | – | – | – | – | – | – | – | Primary Screen % Inhibition [1]: 102.40%; Dose-response (% Inhibition) 5 μM ([2]; 5 μM, hits of first screen): 102.5%; Dose-response (% Inhibition) 10 μM ([2]; 10 μM, hits of first screen): 102.5%; Dose-response (% Inhibition) 20 μM ([2]; 20 μM, hits of first screen): 102.5%; Dose-response (% Inhibition) 40 μM ([2]; 40 μM, hits of first screen): 102.5%; Dose-response (% Inhibition) 80 μM ([2]; 80 μM, hits of first screen): 102.0%; Dose-response (% Inhibition) 160 μM ([2]; 160 μM, hits of first screen): 102.4%
8 | O=C1C(Cl)=C(Cl)C(=O)C(Cl)=C1Cl [Compound A27, CHLORANIL] | 140.9 | 27.8 | – | – | – | – | – | – | inhibition at 5 µM [2]: -3%; inhibition at 10 µM [2]: 19.4%; inhibition at 20 µM [2]: 22.6%; inhibition at 40 µM [2]: 23.4%; inhibition at 80 µM [2]: 28.5%; inhibition at 160 µM [2]: 35.9%
9 | CC1=NCCc2c1[nH]c1cc(O)ccc21 [Compound A28, HARMALOL HYDROCHLORIDE] | 56.2 | 60 | 19.2 | 31.2 | 41.6 | 56.8 | 73 | 86.2 | –
10 | Cc1cc2nc3c(=O)[nH]c(=O)nc-3n(C[C@H](O)[C@H](O)[C@H](O)CO)c2cc1C [Compound A31, RIBOFLAVIN] | -3.2 | 102 | 67.6 | 77.7 | 103 | 99.7 | 102 | 103 | –
11 | CCN(CC)CCNC(=O)COc1ccc(OC)cc1.Cl [Compound A32, MEFEXAMIDE HYDROCHLORIDE] | 119.7 | – | – | – | – | – | – | – | Primary Screen % Inhibition [1]: 14.40%; Dose-response (% Inhibition) 5 μM ([2]; 5 μM, hits of first screen): -1.5%; Dose-response (% Inhibition) 10 μM ([2]; 10 μM, hits of first screen): 2.6%; Dose-response (% Inhibition) 20 μM ([2]; 20 μM, hits of first screen): 4.3%; Dose-response (% Inhibition) 40 μM ([2]; 40 μM, hits of first screen): 11.2%; Dose-response (% Inhibition) 80 μM ([2]; 80 μM, hits of first screen): 23.1%; Dose-response (% Inhibition) 160 μM ([2]; 160 μM, hits of first screen): 32.1%
12 | O=C(O)c1cc(O)c2c(c1)[C@H]([C@H]1c3cc(C(=O)O)cc(O)c3C(=O)c3c(O[C@@H]4O[C@H](CO)[C@@H](O)[C@H](O)[C@H]4O)cccc31)c1cccc(O[C@@H]3O[C@H](CO)[C@@H](O)[C@H](O)[C@H]3O)c1C2=O [Compound A34, SENNOSIDE A] | 119.9 | 12.8 | 0.5 | 4.7 | 6.3 | 12 | 22.5 | 20.9 | –
13 | O=C(O)c1cc(O)c2c(c1)[C@@H]([C@H]1c3cc(C(=O)O)cc(O)c3C(=O)c3c(O[C@@H]4O[C@H](CO)[C@@H](O)[C@H](O)[C@H]4O)cccc31)c1cccc(O[C@@H]3O[C@H](CO)[C@@H](O)[C@H](O)[C@H]3O)c1C2=O [Compound A35, SENNOSIDE B] | 120.4 | 14.3 | 2.7 | 4.1 | 5.8 | 13.6 | 21.1 | 19.9 | –
14 | COc1cccc2c1C(=O)c1c(O)c3c(c(O)c1C2=O)C[C@@](O)(C(C)=O)C[C@@H]3O[C@H]1C[C@H](N)[C@H](O)[C@H](C)O1 [Compound A36, DAUNORUBICIN] | 75.5 | 45.8 | – | – | – | – | – | – | inhibition at 5 µM [2]: 22.8%; inhibition at 10 µM [2]: 33.4%; inhibition at 20 µM [2]: 41%; inhibition at 40 µM [2]: 44.4%; inhibition at 80 µM [2]: 51.9%; inhibition at 160 µM [2]: 56%
15 | Cc1cc2c(C(C)C)c(O)c(O)c(C=O)c2c(O)c1-c1c(C)cc2c(C(C)C)c(O)c(O)c(C=O)c2c1O [Compound A38, GOSSYPOL] | 125.4 | 10.8 | – | – | – | – | – | – | inhibition at 5 µM [2]: 2.7%; inhibition at 10 µM [2]: 4.8%; inhibition at 20 µM [2]: 5.4%; inhibition at 40 µM [2]: 8.4%; inhibition at 80 µM [2]: 14.7%; inhibition at 160 µM [2]: 18.3%
16 | O=C(Nc1ccccc1)c1ccccc1O [Compound A39, SALICYLANILIDE] | -3.2 | 102 | – | – | – | – | – | – | inhibition at 5 µM [2]: 103%; inhibition at 10 µM [2]: 103%; inhibition at 20 µM [2]: 103%; inhibition at 40 µM [2]: 99.7%; inhibition at 80 µM [2]: 102%; inhibition at 160 µM [2]: 103%
17 | CC[N+](C)(CC)CCC[n+]1c(-c2ccccc2)c2cc(N)ccc2c2ccc(N)cc21.[I-].[I-] [Compound A40, PROPIDIUM IODIDE] | 123.6 | – | – | – | – | – | – | – | Primary Screen % Inhibition [1]: 7.08%; Dose-response (% Inhibition) 5 μM ([2]; 5 μM, hits of first screen): 0.5%; Dose-response (% Inhibition) 10 μM ([2]; 10 μM, hits of first screen): -0.2%; Dose-response (% Inhibition) 20 μM ([2]; 20 μM, hits of first screen): 1.2%; Dose-response (% Inhibition) 40 μM ([2]; 40 μM, hits of first screen): 4.4%; Dose-response (% Inhibition) 80 μM ([2]; 80 μM, hits of first screen): 12.1%; Dose-response (% Inhibition) 160 μM ([2]; 160 μM, hits of first screen): 18.3%
